Laboratory results from PMC8072281 (Frontiers in Immunology, 2021).

Experiments:
[1] = test system: PPRV-peptide specific CD8+ T cells; design: species or system mouse (WT C57BL/6); conditions: mouse, in vivo
[2] = test system: H-2K^b on RMA/S cells; type: cell-based, murine
[3] = test system: peptide specific CD8+ T cells; design: species or system mouse (C57BL/6); conditions: mouse, in vivo
[4] = biological target: H-2K^b monomers (Mus musculus, UniProt P01901); type: binding
Chain of H-2K^b monomers (P01901 whole entry, looked up): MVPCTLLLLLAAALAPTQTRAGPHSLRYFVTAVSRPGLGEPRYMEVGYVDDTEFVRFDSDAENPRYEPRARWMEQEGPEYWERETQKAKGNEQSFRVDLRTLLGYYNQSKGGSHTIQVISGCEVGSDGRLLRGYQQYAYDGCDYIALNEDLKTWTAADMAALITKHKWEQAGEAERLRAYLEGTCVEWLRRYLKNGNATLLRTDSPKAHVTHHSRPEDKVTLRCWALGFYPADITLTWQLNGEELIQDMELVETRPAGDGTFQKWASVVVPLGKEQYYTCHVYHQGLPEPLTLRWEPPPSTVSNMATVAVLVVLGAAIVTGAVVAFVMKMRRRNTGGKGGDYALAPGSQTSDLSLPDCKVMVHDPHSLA

| Sequence | tetramer positive CD8+ T cells, frequencies and numbers vs control [1] | stabilization of surface H-2K^b [2] | magnitude of tetramer positive CD8+ T cells [3] | fold change values of H-2K^b monomer stabilization vs control peptide SIINFEKL [4] |
| --- | --- | --- | --- | --- |
| FMYLFLLGV | not significantly different from the control animals | greater levels than the other peptides | – | – |
| FSAGAYPLL | significantly higher frequencies and numbers | greater levels than the other peptides | higher | higher values as compared to other peptides |
| IEHIFESPL | – | – | – | higher values as compared to other peptides |
| IGLVRDFGL | significantly higher frequencies and numbers | greater levels than the other peptides | higher | higher values as compared to other peptides |
| IVVRRTAGV | – | – | – | higher values as compared to other peptides |
| SSITTRSRL | – | – | – | higher values as compared to other peptides |
| VAFNILVTL | – | – | – | higher values as compared to other peptides |
| VILDRERLV | – | – | – | higher values as compared to other peptides |
